Laboratory results as given in the supplement of paper PMC10307832.

How the values were obtained:
Test in all cases: relative viability (nuclei count vs DMSO), 5 days (fraction); higher = more cells survive
[1] = compound: Cn1c(=O)n(-c2ccc(C(C)(C)C#N)cc2)c2c3cc(-c4cnc5ccccc5c4)ccc3ncc21 [Dactolisib] + O=C(CCCCCCC(=O)Nc1ccccc1)NO [Vorinostat] (partner 1 µM)
Summary of the method: (§1)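 Dosing by pin tool came one day after lung cancer cell lines were seeded in 1536-well plates, using either one drug or a fixed anchor-drug dose plus five library-drug doses (not always all listed) in √10 steps. After 5 days, nuclei were counted on 4× images. Relative viability is treated-well nuclei count divided by vehicle-well nuclei count, and values are medians of duplicate plates.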

[2] = compound: C1CCC(CC1)N(CCNCCC2=C3C(=C(C=C2)O)NC(=O)CO3)C(=O)CCNCCC4=CC(=C(C=C4)Cl)Cl [AZ505] + O=C(c1cc(Cc2n[nH]c(=O)c3ccccc23)ccc1F)N1CCN(C(=O)C2CC2)CC1 [Olaparib] (partner 8 µM)
Summary of the method: as §1

[3] = compound: C1CCC(CC1)N(CCNCCC2=C3C(=C(C=C2)O)NC(=O)CO3)C(=O)CCNCCC4=CC(=C(C=C4)Cl)Cl [AZ505] + Nc1nc2[nH]cc(CCc3ccc(C(=O)N[C@@H](CCC(=O)O)C(=O)O)cc3)c2c(=O)[nH]1 [Pemetrexed] (partner 0.2 µM)
Summary of the method: as §1

[4] = compound: Cn1c(=O)n(-c2ccc(C(C)(C)C#N)cc2)c2c3cc(-c4cnc5ccccc5c4)ccc3ncc21 [Dactolisib] + CS(=O)(=O)N1CCN(Cc2cc3nc(-c4cccc5[nH]ncc45)nc(N4CCOCC4)c3s2)CC1 [Pictilisib] (partner 1 µM)
Summary of the method: as §1

Cell Line	relative viability ([1]; first compound 0.002 µM)	relative viability ([1]; first compound 0.006325 µM)	relative viability ([1]; first compound 0.02 µM)	relative viability ([1]; first compound 0.06325 µM)	relative viability ([1]; first compound 0.2 µM)	relative viability ([2]; first compound 0.08 µM)	relative viability ([2]; first compound 0.8 µM)	relative viability ([2]; first compound 2.53 µM)	relative viability ([2]; first compound 8 µM)	relative viability ([3]; first compound 0.08 µM)	relative viability ([3]; first compound 0.8 µM)	relative viability ([3]; first compound 2.53 µM)	relative viability ([3]; first compound 8 µM)	relative viability ([4]; first compound 0.002 µM)	relative viability ([4]; first compound 0.006325 µM)	relative viability ([4]; first compound 0.02 µM)	relative viability ([4]; first compound 0.06325 µM)	relative viability ([4]; first compound 0.2 µM)	relative viability ([2]; first compound 0.253 µM)	relative viability ([3]; first compound 0.253 µM)
NCI-H1395	0.423	0.622	0.554	0.496	0.467	0.427	0.456	0.489	0.392	0.919	0.733	0.969	1.04	0.64	0.611	0.569	0.525	0.446	–	–
NCI-H1437	0.865	0.836	0.802	0.68	0.552	0.623	0.632	0.595	0.637	0.334	0.29	0.336	0.322	0.452	0.421	0.371	0.268	0.165	0.623	0.314
NCI-H1650	0.47	0.508	0.504	0.32	0.264	0.723	0.735	0.727	0.853	0.352	0.351	0.402	0.446	0.672	0.48	0.524	0.321	0.323	0.803	0.396
NCI-H1651	0.579	0.645	0.547	0.391	0.377	0.182	0.179	0.185	0.186	0.529	0.608	0.679	0.6	0.654	0.514	0.449	0.328	0.265	0.19	0.557
NCI-H1666	1.09	0.977	0.969	0.922	0.87	0.736	0.721	0.731	0.764	0.81	0.736	0.85	0.841	0.417	0.405	0.438	0.383	0.366	0.812	0.835
NCI-H1734	0.612	0.705	0.632	0.325	0.258	0.603	0.613	0.63	0.641	0.405	0.392	0.398	0.416	0.468	0.395	0.39	0.26	0.216	0.673	0.351
NCI-H1755	0.758	0.77	0.71	0.619	0.477	0.82	0.92	0.885	0.868	0.474	0.402	0.44	0.461	0.47	0.471	0.451	0.368	0.274	0.849	0.452
NCI-H1793	0.794	0.358	0.293	0.205	0.197	0.696	0.769	0.772	0.972	0.863	0.878	0.851	1.06	0.311	0.315	0.175	0.211	0.203	0.885	0.756
NCI-H1915	0.556	0.487	0.531	0.402	0.453	0.259	0.247	0.272	0.257	0.541	0.534	0.614	0.525	1.01	0.952	0.944	0.513	0.483	0.272	0.492
NCI-H1944	0.576	0.56	0.492	0.29	0.223	0.39	0.497	0.413	0.423	0.748	0.796	0.499	0.597	0.36	0.334	0.305	0.233	0.253	0.411	0.558
NCI-H1975	0.788	0.622	0.575	0.429	0.266	0.747	0.75	0.775	0.904	0.289	0.309	0.307	0.301	0.26	0.27	0.232	0.2	0.175	0.883	0.311
NCI-H1993	0.849	0.54	0.537	0.481	0.284	0.995	1.14	1.01	1.16	0.63	0.568	0.651	0.677	0.99	0.85	0.804	0.705	0.834	1.12	0.66
NCI-H2009	0.746	0.719	0.704	0.568	0.202	0.64	0.647	0.652	0.629	1.05	0.984	1.06	1.01	0.961	0.853	0.727	0.498	0.322	0.675	1.01
